The values below come from PMC12966373 (Nature Communications, 2026).

Data set [1] deals with primary human monocytes. Nature of the data set: Coacervate uptake in primary human monocytes. Conditions: particles pre-assembled at 0.5 mg/mL, diluted 1:10 to 1:3 in media; 4 h and 24 h. The data set is classed as cell-based.
Data set [2] has as its system B16-F10 murine melanoma cells. Nature of the data set: Coacervate uptake in B16-F10 cells. Conditions: particles pre-assembled at 0.5 mg/mL, diluted 1:10 to 1:3 in media; 4 h and 24 h. Type of data set: cell-based, mouse.
The nature of data set [3]: Coacervate assembly via pH shift: size and number by microscopy. The data set is classed as physicochemical. To be noted: peptide 0.5 mg/mL or higher.
For data set [4] the following is noted: cited from earlier work.
Data set [5] concerns U2OS cells. Nature of the data set: Coacervate uptake and stability over 5 days in U2OS cells. Type of data set: cell-based, human. To be noted: particles pre-assembled at 0.5 mg/mL, diluted 1:10 to 1:3 in media; 4 h and 24 h.

Regarding GHGVYGHGVYGHGPYGHGPYGHGLYW [HBpep], the uptake by cells result in data set [1], in data set [2] and in data set [5] was “highly efficient uptake” in each case. Further, the average particle diameter in data set [3] is reported as > 2 µm. Also, the “solubility in acidic buffer” value in data set [4] (pH 4.5) is listed as “largely soluble”. The “behaviour at physiological pH” value in data set [4] (pH 7.4, standard conditions) is “phase separate”.
